These results are taken from ChEMBL document CHEMBL1122489, “Pyrimidine derivatives. 4. Synthesis and antihypertensive activity of 4-amino-2-(4-cinnamoylpiperazino)-6,7-dimethoxyquinazoline derivatives” (J Med Chem, 1983).

Format in all cases: functional
Assay [1] concerns Rattus norvegicus. Kind of assay: Antihypertensive activity rating in conscious SHR after 1 hr post dose at 3 mg/kg (po).
The subject of assay [2] is Rattus norvegicus. Kind of assay: Antihypertensive activity rating in conscious SHR after 24 hr post dose at 0.3 mg/kg (po).
Assay [3] concerns Rattus norvegicus. Kind of assay: Antihypertensive activity rating in conscious SHR after 24 hr post dose at 3 mg/kg (po).
Assay [4] has as its system Rattus norvegicus. As to the kind of experiment: Antihypertensive activity rating in conscious SHR after 3 hr post dose at 0.3 mg/kg (po).
For assay [5], the system named is Rattus norvegicus. Kind of assay: Antihypertensive activity rating in conscious SHR after 3 hr post dose at 1 mg/kg (po).
In assay [6] the test system is Rattus norvegicus. As to the kind of experiment: Antihypertensive activity rating in conscious SHR after 3 h post dose at 3 mg/kg (po).
Assay [7] relates to Rattus norvegicus. As to the kind of experiment: Antihypertensive activity rating in conscious SHR after 6 hr post dose at 0.3 mg/kg (po).
The subject of assay [8] is Rattus norvegicus. Kind of assay: Antihypertensive activity rating in conscious SHR after 6 hr post dose at 1 mg/kg (po).
Assay [9] relates to Rattus norvegicus. As to the kind of experiment: Antihypertensive activity rating in conscious SHR after 6 hr post dose at 3 mg/kg (po).
Assay [10] deals with Rattus norvegicus. As to the kind of experiment: Antihypertensive activity rating in conscious SHR after 1 hr post dose at 0.3 mg/kg (po).
The test system of assay [11] is Rattus norvegicus. Kind of assay: Antihypertensive activity rating in conscious SHR after 1 hr post dose at 1 mg/kg (po).
Assay [12] has as its system Rattus norvegicus. As to the kind of experiment: Maximum percent decrease in blood pressure in SHR dosed at 1 mg/kg (hour post dose in parentheses).
Assay [13] concerns Rattus norvegicus. Kind of assay: Maximum percent decrease in blood pressure in SHR dosed at 0.3 mg/kg (hour post dose in parentheses).
Assay [14] concerns Rattus norvegicus. Kind of assay: Maximum percent decrease in blood pressure in SHR dosed at 3 mg/kg (hour post dose in parentheses).
For assay [15], the system named is Rattus norvegicus. As to the kind of experiment: Effect on blood pressure (initial) in renal hypertensive rats dosed at 10 mg/kg.
Assay [16] concerns Rattus norvegicus. As to the kind of experiment: Effect on blood pressure in renal hypertensive rats dosed at 10 mg/kg after 3 h.
Assay [17] has as its system Rattus norvegicus. As to the kind of experiment: Effect on blood pressure in renal hypertensive rats dosed at 10 mg/kg after 6 h.
The subject of assay [18] is Rattus norvegicus. As to the kind of experiment: Effect on blood pressure in renal hypertensive rats dosed at 3 mg/kg after 1 h.
Assay [19] relates to Rattus norvegicus. As to the kind of experiment: Effect on blood pressure in renal hypertensive rats dosed at 3 mg/kg after 24 h.
Assay [20] relates to Rattus norvegicus. Kind of assay: Effect on blood pressure in renal hypertensive rats dosed at 3 mg/kg after 6 h.
The subject of assay [21] is Rattus norvegicus. As to the kind of experiment: Effect on mean blood pressure (initial) in renal hypertensive rats dosed at 3 mg/kg.
The species entered for assay [22] is Rattus norvegicus. Kind of assay: Compound was tested for alpha-adrenoceptor blocking activity by its ability to antagonize norepinephrine contraction in the rat thoracic aorta. The settings on record: read-out: pA2 (converted).
For assay [23], the system named is Rattus norvegicus. As to the kind of experiment: Effect on blood pressure in renal hypertensive rats dosed at 10 mg/kg after 1 h.
Assay [24] concerns Rattus norvegicus. As to the kind of experiment: Effect on blood pressure in renal hypertensive rats dosed at 10 mg/kg after 24 h.
The nature of assay [25]: Potency ratio in rat thoracic aorta.
The subject of assay [26] is Rattus norvegicus. Kind of assay: Antihypertensive activity rating in conscious SHR after 24 hr post dose at 1 mg/kg (po).
Assay [27] relates to Rattus norvegicus. Kind of assay: Effect on blood pressure in renal hypertensive rats dosed at 3 mg/kg after 3 h.
Assay [28] relates to Rattus norvegicus. As to the kind of experiment: Effect on blood pressure in renal hypertensive rats dosed at 3 mg/kg after 12 h.
Assay [29] deals with Rattus norvegicus. As to the kind of experiment: Effect on blood pressure in renal hypertensive rats dosed at 10 mg/kg after 12 h.
The test system of assay [30] is Rattus norvegicus. As to the kind of experiment: Effect on blood pressure in renal hypertensive rats dosed at 10mg/kg, po after 1 h.
Assay [31] has as its system Rattus norvegicus. As to the kind of experiment: Effect on blood pressure in renal hypertensive rats dosed at 10 mg/kg, po after 24 h.
Assay [32] has as its system Rattus norvegicus. Kind of assay: Effect on blood pressure in renal hypertensive rats dosed at 10 mg/kg, po after 3 h.
Assay [33] concerns Rattus norvegicus. As to the kind of experiment: Effect on blood pressure in renal hypertensive rats dosed at 10mg/kg, po after 6 h.
For assay [34], the system named is Rattus norvegicus. Kind of assay: Effect on blood pressure in renal hypertensive rats dosed at 3 mg/kg, po after 1 h.
Assay [35] has as its system Rattus norvegicus. As to the kind of experiment: Effect on blood pressure in renal hypertensive rats dosed at 3 mg/kg, po after 24 h.
The subject of assay [36] is Rattus norvegicus. As to the kind of experiment: Effect on blood pressure in renal hypertensive rats dosed at 3 mg/kg, po after 3 h.
The test system of assay [37] is Rattus norvegicus. As to the kind of experiment: Effect on blood pressure in renal hypertensive rats dosed at 3 mg/kg, po after 6 h.
The test system of assay [38] is Rattus norvegicus. Kind of assay: Effect on mean blood pressure (initial) in renal hypertensive rats dosed at 3 mg/kg, po.
For assay [39], the system named is Rattus norvegicus. Kind of assay: Effect on blood pressure (initial) in renal hypertensive rats dosed at 10mg/kg, po.

Turning to `COc1cc2nc(N3CCN(C(=O)/C=C/c4ccco4)CC3)nc(N)c2cc1OC.Cl`, the Activity in assay [1] came out at 3; in [2], 0; in [3], 0; in assay [4], 1; in assay [5] it was 1; in assay [6], 2. The Activity in [7] came to 1; in assay [8], 2; in assay [9], 2; in assay [10] it was 1; in assay [11], 2; in [26], 0. The Decrease in assay [12] stood at 28%; in [13], 15%; in assay [14] it was 41%. The Mean blood pressure in assay [15] is reported as 181 mmHg; in assay [16] it was -16.3 mmHg; in assay [17], -17.4 mmHg; in assay [18], -17.1 mmHg; in [19], -5.2 mmHg; in assay [20] it was -18.3 mmHg. The Mean blood pressure is reported as 193 mmHg in assay [21], -17.9 mmHg in assay [23], -11.7 mmHg in [24] and -16.9 mmHg in assay [27]. Also, the Kb in assay [22] is 0.141 nM. The Ratio in assay [25] came out at 0.4.
Take `Cc1ccc(N(CC2=NCCN2)c2cccc(O)c2)cc1` [PHENTOLAMINE]: the Kb in assay [22] was 8.51 nM. In addition, the Ratio in assay [25] is recorded as 0.006.
Regarding `COc1cc2nc(N3CCN(C(=O)/C=C/c4ccccc4)CC3)nc(N)c2cc1OC`, the Activity in [1] is 2; in assay [2], 0; in assay [3], 0; in assay [4], 0; in assay [5] it was 1; in assay [6], 1. The Activity in assay [7] was found to be 1; in assay [8] it was 1; in [9], 1; in assay [10] it was 0; in assay [11], 1; in [26] it was 0. Further, the Decrease in assay [12] is on record as 14%; in [13], 10%; in assay [14], 22%. Besides, the Mean blood pressure in assay [15] is given as 199 mmHg; in assay [16] it was -14.1 mmHg; in assay [17], -15.9 mmHg; in [18] it was -3.7 mmHg; in assay [19], -0.1 mmHg; in [20], -7.2 mmHg. The Mean blood pressure in assay [21] is listed as 195 mmHg; in [23], -12.6 mmHg; in assay [24], -14.1 mmHg; in assay [27], -6.8 mmHg. The Kb in [22] is 0.724 nM. In addition, the Ratio in [25] was determined as 0.07.
`CCOc1ccc(/C=C/C(=O)N2CCN(c3nc(N)c4cc(OC)c(OC)cc4n3)CC2)cc1`: the Activity in assay [1] is 0; in assay [2], 1; in [3], 0; in assay [4], 0; in [5], 1; in assay [6] it was 1. In addition, the Activity is recorded as 0 in [7]; 2 in assay [8]; 2 in [9]; 0 in assay [10]; 0 in assay [11]; 0 in [26]. In addition, the Decrease in assay [12] was 21%; in assay [13] it was 13%; in assay [14], 24%. Moreover, the Mean blood pressure in [15] is given as 204 mmHg; in assay [16], -16.3 mmHg; in [17], -19.1 mmHg; in assay [18] it was -4 mmHg; in assay [28] it was -10.6 mmHg; in [19] it was -2.6 mmHg. For the same compound, the Mean blood pressure in [20] was -14.5 mmHg; in assay [21] it was 203 mmHg; in assay [23], -6.2 mmHg; in [29], -15.5 mmHg; in assay [24] it was -10.4 mmHg; in [27] it was -11.7 mmHg. Also, in assay [22], the Kb was 2.19 nM. The Ratio in assay [25] came to 0.02.
With `COc1cc2nc(N3CCN(C(=O)/C=C/c4cccs4)CC3)nc(N)c2cc1OC`, the Activity in assay [1] turned out to be 2; in assay [2], 0; in assay [3], 0; in assay [4], 0; in [5] it was 1; in assay [6], 1. Also, the Activity in assay [7] is 1; in assay [8] it was 1; in [9], 2; in [10] it was 0; in [11], 1; in [26], 0. Also, the Decrease was found to be 14% in [12], 10% in assay [13] and 24% in assay [14].
Regarding `COc1cc2nc(N3CCN(C(=O)c4ccco4)CC3)nc(N)c2cc1OC.Cl` [PRAZOSIN HYDROCHLORIDE], the Activity in assay [1] worked out at 2; in assay [2], 0; in assay [3], 0; in [4], 1; in assay [5], 2; in [6], 1. In addition, the Activity in assay [7] was 1; in assay [8] it was 1; in assay [9], 1; in assay [10] it was 1; in assay [11], 2; in assay [26], 0. In addition, the Decrease came out at 25% in assay [12], 19% in assay [13] and 27% in assay [14]. Also, the Mean blood pressure in assay [30] is listed as -25.6 mmHg; in [31], -8.9 mmHg; in assay [32] it was -17.6 mmHg; in assay [33], -14.7 mmHg; in [34] it was -17.9 mmHg; in [35], -3.3 mmHg. In addition, the Mean blood pressure is -15.5 mmHg in assay [36], -14.5 mmHg in [37], 197 mmHg in assay [38] and 187 mmHg in [39]. The Kb in [22] was 0.0513 nM. In addition, the Ratio in [25] stood at 1.
